Source: article PMC7504387, “Antimicrobial and Amyloidogenic Activity of Peptides Synthesized on the Basis of the Ribosomal S1 Protein from Thermus Thermophilus” (International Journal of Molecular Sciences, 2020)
≈ marks a conversion by molar mass, not a printed value. Where a SMILES comes first, the peptide text is derived from it.

Assays:
[1] = test system: ribosomal S1 protein from T. thermophilus; assay: Electron microscopy, coaggregation of peptide with S1 protein
Experimental: (§1) The presence of amyloid fibrils in the test samples was monitored by transmission electron microscopy (TEM). End-point solutions of peptides were collected and the samples were dissolved in the same solution to 0.2 mg/mL before studying with electron microscopy. A formvar-coated copper grid 400 mesh (Electron Microscopy Sciences, Hatfield, PA, USA) was placed on a 10 μL sample. After 5 min absorption, the grids with the preparation were negatively stained for 1.5–2.0 min with 1% (weight/volume) aqueous solution of uranyl acetate. The excess of the staining agent was removed with filter paper. The preparations were analyzed using a JEM-100C (Jeol, Tokyo, Japan) transmission electron microscope at the accelerating voltage of 80 kV. Images were recorded on the Kodak electron image film (SO-163) at nominal magnification of 40,000–60,000.

T. thermophilus cells = assay: Electron microscopy of intact and peptide-treated T. thermophilus cells; assay type: cell-based
Experimental: Along with the spectrophotometric method for determining the antimicrobial activity of peptides, the viability of cells was evaluated using electron microscopy. […] At the given peptide concentration, cells with a typical morphology and flagella were often found. Many protein aggregates were also observed. The absence of an antimicrobial effect with an increase in the concentration of the peptide to 1000 μg/mL, consistent with the spectrophotometry data of the antimicrobial activity of peptides (Figure 3).
as §1

[2] = test system: T. thermophilus cell culture; assay type: cell-based
Experimental: UV-Vis spectra were recorded using a spectrophotometr SF-102 (Akvilon, Moscow, Russia). At the end of the incubation, the density of the medium was estimated by spectrophotometry in a cuvette 10 mm with a total volume of 100 μL. The cuvettes were filled with the peptide water solutions and spectra were collected, using a wavelength from 600 nm. Biological activity of peptides was evaluated by their minimum concentration, which that may inhibit the growth of T. thermophilus bacteria culture. Biological activity of peptides was counted by using the following equation: (1) E=1−A (sample with peptide)/A (sample without peptide), where E is a biological activity of peptides, A is an optical absorption after 24 h incubation with and without peptide.
To construct a dose-effect curve and estimate the quantitative parameters of the curves, the statistical environment R and the drc package were used. The choice of model for describing the functional dependence was determined by several parameters: the logarithm of the maximum value of the likelihood function (logLik), the Akaike information criterion (IC), and the residual variance (Res var).
The algorithm for evaluating antimicrobial activity includes the study of this process and the dose–response relationship. The reaction of a biological object determines a quantitative assessment of the antimicrobial effect, depending not only on the concentration of the peptide, but also on the time of its action. Almost any impact begins with a certain threshold. An important final result of the experiment is the assessment of this threshold—the minimum inhibitory concentration (MIC) at which peptide influence is observed.

[3] = Transmission electron microscopy of peptide preparations; assay type: physicochemical; conditions: peptide alone, negative staining, TEM
Experimental: as §1

## CC[C@H](C)[C@H](NC(=O)[C@H](CCC(=O)O)NC(=O)[C@@H](NC(=O)[C@H](Cc1ccccc1)NC(=O)[C@@H](NC(=O)CNC(=O)[C@H](Cc1ccccc1)NC(=O)[C@H](CC(=O)O)NC(=O)[C@@H](NC(=O)[C@@H](NC(=O)CNC(=O)CN(C)C(=O)CNC(=O)CNC(=O)[C@H](CCCNC(=N)N)NC(=O)[C@H](CCCNC(=N)N)NC(=O)[C@H](CCCNC(=N)N)NC(=O)[C@H](CCC(N)=O)NC(=O)[C@H](CCCNC(=N)N)NC(=O)[C@H](CCCNC(=N)N)NC(=O)[C@H](CCCCN)NC(=O)[C@H](CCCCN)NC(=O)[C@@H](N)CCCNC(=N)N)C(C)C)[C@@H](C)O)C(C)C)C(C)C)C(=O)O [R23I] (HELM PEPTIDE1{R.K.K.R.R.Q.R.R.R.G.G.[Sar].G.V.T.D.F.G.V.F.V.E.I}$$$$V2.0; N-terminus and C-terminus assumed)
[1]; peptide:S1 protein ratio 1:1
  morphology of peptide/S1 protein mixture by electron microscopy: both the protein aggregates and fibrils were observed
[1]; peptide:S1 protein ratio 5:1 (S1:peptide = 1:5)
  morphology of peptide/S1 protein mixture by electron microscopy: both the protein aggregates and fibrils were observed
T. thermophilus cells; peptide 50 μg/mL
  cell morphology by electron microscopy: whole cells were practically absent
T. thermophilus cells; peptide 100 μg/mL
  cell morphology by electron microscopy: the number of cells decreased
T. thermophilus cells; peptide 1000 μg/mL
  cell morphology by electron microscopy: did not lead to the morphological changes compared with the control
[2]; 50 μg/mL in medium, OD 600 nm versus sampling time, DMSO control reached 0.8
  change of optical density of T. thermophilus culture over time: no increase in the optical density
[2]; T. thermophilus culture, optical absorption at 600 nm after 24 h incubation, 5 repeats for R23I, 2 for R23T and V10I
  minimal inhibitory concentration (MIC): 50 µg/mL (≈ 18.6 µM)
[2]; T. thermophilus culture, additional concentrations 0.5-250 μg/mL tested
  concentration at which a pronounced antibacterial effect is observed (no activity below): 40 µg/mL
[2]; culture medium, OD 600 nm
  concentration leading to formation of aggregates in solution and increase in optical density: ≥ 500 µg/mL
[3]
  aggregate/fibril morphology according to electron microscopy: aggregates of different sizes and complexes of aggregates are present
